US20240287138A1, “CYCLIC PEPTIDES FOR INHIBITING TNF RECEPTOR 1 ACTIVITY” (Merck Sharp & Dohme LLC, priority 2023, published 2024)
pIC50, pKd: −log10 of the molar value. Where two headings read alike, the source gives them in different places. Numbered stars: 1 amine (or outer) side, 2 acyl side, 3 side chain; on linkers, the order of the positions; unused ones are H or OH. Bridge positions count the residues as written; N and C are the ends. Square brackets hold non-standard residues; d marks the D form. Peptide text beside a SMILES is read from it. * marks the point of attachment. Trp(βS-Me,7-OMe) = COc1cccc2c([C@H](C)[C@H](N)C(=O)O)c[nH]c12; X49 = C[N+](C)(C)CC(=O)N[C@H]1C[C@H](C(=O)[*:2])N([*:1])C1; Morpholine(3S-CO,6,6-Me2) = CC1(C)CN[C@H](C(=O)O)CO1; X54 = O=C(O)c1c(F)cc(C[C@H](N[*:1])C(=O)[*:2])cc1F; Trp(7-CN) = N#Cc1cccc2c(C[C@H](N)C(=O)O)c[nH]c12; Trp(7-Cl) = N[C@@H](Cc1c[nH]c2c(Cl)cccc12)C(=O)O; Phe(4-CONH2) = NC(=O)c1ccc(C[C@H](N)C(=O)O)cc1; Phe(4-COOH) = N[C@@H](Cc1ccc(C(=O)O)cc1)C(=O)O; Trp(7-aza) = N[C@@H](Cc1c[nH]c2ncccc12)C(=O)O; Pip(5R-OH) = O=C(O)[C@@H]1CC[C@@H](O)CN1; X13 = O=C([C@H]1CC[C@@H](N[*:1])C1)[*:2]; X1 = O=C([C@@H]1CC[C@H](N[*:1])C1)[*:2]; Dap(CONH2) = NC(=O)NC[C@H](N)C(=O)O; Val(3-OH) = CC(C)(O)[C@H](N)C(=O)O; Pip(4-aza) = O=C(O)[C@@H]1CNCCN1; 4Pal = N[C@@H](Cc1ccncc1)C(=O)O; NMeE = CN[C@@H](CCC(=O)O)C(=O)O; αMeS = C[C@](N)(CO)C(=O)O; Carboxymethyl = O=C(O)C*; Nle = CCCC[C@H](N)C(=O)O; Sar = CNCC(=O)O

How the values were obtained:
[1] = biological target: T1, TNFα-induced NF-κB signal transduction pathway (TNFR1 signaling) in THP-1 cells (Homo sapiens, UniProt P19438); test: THP-1 Lucia NF-κB reporter cell assay, inhibition of TNFα-induced NF-κB signaling; format: cell-based; conditions: THP-1 NF-κB Lucia reporter cells, 10 ng/mL TNFα, 16-18 h, secreted luciferase; read-out: THP-1 IC50
T1 sequence (P19438 30-455): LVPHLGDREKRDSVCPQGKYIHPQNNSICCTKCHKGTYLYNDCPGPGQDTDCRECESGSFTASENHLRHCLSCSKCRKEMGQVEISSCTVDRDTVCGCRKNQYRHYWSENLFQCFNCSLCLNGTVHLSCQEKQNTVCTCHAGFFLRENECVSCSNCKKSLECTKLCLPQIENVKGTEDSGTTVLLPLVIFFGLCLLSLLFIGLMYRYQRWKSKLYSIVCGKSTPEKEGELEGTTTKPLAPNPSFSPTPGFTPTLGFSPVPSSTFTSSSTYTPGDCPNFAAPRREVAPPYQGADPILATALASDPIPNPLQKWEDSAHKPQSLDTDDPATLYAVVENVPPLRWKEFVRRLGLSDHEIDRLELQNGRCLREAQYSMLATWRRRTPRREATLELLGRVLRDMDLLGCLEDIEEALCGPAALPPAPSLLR
In short: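 THP-1 Lucia NF-κB cells, 20k/well, no selection antibiotics; peptide pre-inc 1 h 37 °C; + recombinant human TNFα 10 ng/mL final; o.n.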

[2] = biological target: T2, human soluble TNFR1 (sTNFR1) (Homo sapiens, UniProt P19438); test: Human sTNFR1-peptide displacement assay (LanthaScreen Eu TR-FRET binding assay)
T2 construct: made in house; host or cells: Sf21 (baculovirus)
T2 sequence (P19438 with tags, fused parts or gaps): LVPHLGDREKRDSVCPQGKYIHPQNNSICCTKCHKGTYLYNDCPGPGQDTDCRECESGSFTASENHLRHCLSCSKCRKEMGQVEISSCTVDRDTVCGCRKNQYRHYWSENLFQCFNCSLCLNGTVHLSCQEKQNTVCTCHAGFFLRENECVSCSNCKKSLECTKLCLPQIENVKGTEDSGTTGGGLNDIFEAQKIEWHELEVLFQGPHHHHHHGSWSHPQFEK
In short: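 Readout is the 665/615 nm TR-FRET ratio (Eu anti-His donor, streptavidin-Alexa647 acceptor), normalized to DMSO and saturating displacer, fit by Morrison-based five-parameter logistic for Kd^app. His-tagged sTNFR1 (1-211) prebound to 100 nM biotinylated peptide SEQ ID NO.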

Compound | pIC50 [1] | pKd [2] | pKd ([2]; displacement of biotinylated peptide SEQ ID NO. 1 from sTNFR1, 20 point titration, 5-parameter fit based on Morrison equation (tight binding), read-out: TR-FRET Kd^app) | pIC50 ([2]; displacement of biotinylated peptide SEQ ID NO. 1 from sTNFR1, weaker binders, 10 pts titration, 4-parameter logistic model, read-out: TR-FRET, IC50) | pIC50 [2]
CCCC[C@@H]1NC(=O)[C@@H]2CC[C@@H](C2)NC(=O)[C@H]([C@@H](C)c2c[nH]c3c(OC)cccc23)NC(=O)CN(C)C(=O)[C@H](Cc2cc(F)c(C(=O)O)c(F)c2)NC(=O)[C@H](Cc2ccc(C(N)=O)cc2)NC(=O)[C@](C)(CO)NC(=O)[C@H](Cc2c[nH]c3c(C#N)cccc23)NC(=O)[C@H](Cc2cc(F)c(C(=O)O)c(F)c2)NC(=O)[C@H](CC(N)=O)NC(=O)[C@H]2C[C@H](NC(=O)C[N+](C)(C)C)CN2C(=O)[C@H](Cc2c[nH]c3ncccc23)NC(=O)[C@@H]2CC[C@@H](O)CN2C(=O)[C@H](Cc2ccncc2)NC1=O [SEQ ID NO. 193] (cyclo([4Pal][Pip(5R-OH)][Trp(7-aza)][X49]N[X54][Trp(7-CN)][αMeS][Phe(4-CONH2)][X54][Sar][Trp(βS-Me,7-OMe)][X1][Nle])) | 9.00 | 9.82 |  |  | 
CCCC[C@@H]1NC(=O)[C@@H]2CC[C@@H](C2)NC(=O)[C@H]([C@@H](C)c2c[nH]c3c(OC)cccc23)NC(=O)CN(C)C(=O)[C@H](Cc2ccc(OCC(=O)O)cc2)NC(=O)[C@H](Cc2ccc(C(N)=O)cc2)NC(=O)[C@](C)(CO)NC(=O)[C@H](Cc2c[nH]c3c(Cl)cccc23)NC(=O)[C@H](Cc2ccncc2)NC(=O)[C@H](CC(N)=O)NC(=O)[C@H](CCC(=O)O)N(C)C(=O)[C@H](Cc2c[nH]c3ccccc23)NC(=O)[C@@H]2CC[C@@H](O)CN2C(=O)[C@H](Cc2ccncc2)NC1=O [SEQ ID NO. 126] (cyclo([4Pal][Trp(7-Cl)][αMeS][Phe(4-CONH2)]Y(Carboxymethyl)[Sar][Trp(βS-Me,7-OMe)][X1][Nle][4Pal][Pip(5R-OH)]W[NMeE]N)) | 9.10 | 10.10 |  |  | 
CCCC[C@@H]1NC(=O)[C@H]2CC[C@H](C2)NC(=O)[C@H]([C@@H](C)c2c[nH]c3c(OC)cccc23)NC(=O)CN(C)C(=O)[C@H](Cc2ccc(O)cc2)NC(=O)[C@H](Cc2ccc(C(N)=O)cc2)NC(=O)[C@](C)(CO)NC(=O)[C@H](Cc2c[nH]c3c(Cl)cccc23)NC(=O)[C@H](Cc2ccncc2)NC(=O)[C@H](CC(N)=O)NC(=O)[C@H](CCC(=O)O)N(C)C(=O)[C@H](Cc2c[nH]c3ccccc23)NC(=O)[C@@H]2COC(C)(C)CN2C(=O)[C@H](Cc2ccncc2)NC1=O [SEQ ID NO. 214] (cyclo([4Pal][Trp(7-Cl)][αMeS][Phe(4-CONH2)]Y[Sar][Trp(βS-Me,7-OMe)][X13][Nle][4Pal][Morpholine(3S-CO,6,6-Me2)]W[NMeE]N)) | 8.43 |  | 9.21 | 9.02 | 
CCCC[C@@H]1NC(=O)CSC[C@@H](C(N)=O)NC(=O)[C@H]([C@@H](C)c2c[nH]c3c(OC)cccc23)NC(=O)CN(C)C(=O)[C@H](Cc2ccc(O)cc2)NC(=O)[C@H](Cc2ccc(C(=O)O)cc2)NC(=O)[C@](C)(CO)NC(=O)[C@H](Cc2c[nH]c3c(Cl)cccc23)NC(=O)[C@H](Cc2ccncc2)NC(=O)[C@H](CC(N)=O)NC(=O)[C@H](CCC(=O)O)N(C)C(=O)[C@H](Cc2c[nH]c3ncccc23)NC(=O)[C@H](C(C)(C)O)NC(=O)[C@H](Cc2c[nH]cn2)NC1=O [SEQ ID NO. 217] ({CH2CO}-[Nle]H[Val(3-OH)][Trp(7-aza)][NMeE]N[4Pal][Trp(7-Cl)][αMeS][Phe(4-COOH)]Y[Sar][Trp(βS-Me,7-OMe)]C-NH2; thioether N-14) | 8.36 | 9.14 |  |  | 9.00
CCCC[C@@H]1NC(=O)[C@@H]2CC[C@@H](C2)NC(=O)[C@H]([C@@H](C)c2c[nH]c3c(OC)cccc23)NC(=O)CN(C)C(=O)[C@H](Cc2ccc(O)cc2)NC(=O)[C@H](Cc2ccc(C(=O)O)cc2)NC(=O)[C@](C)(CO)NC(=O)[C@H](Cc2c[nH]c3c(Cl)cccc23)NC(=O)[C@H](Cc2ccncc2)NC(=O)[C@H](CNC(N)=O)NC(=O)[C@H](CCC(=O)O)N(C)C(=O)[C@H](Cc2c[nH]c3ccccc23)NC(=O)[C@@H]2CNCCN2C(=O)[C@H](Cc2ccncc2)NC1=O [SEQ ID NO. 225] (cyclo([4Pal][Trp(7-Cl)][αMeS][Phe(4-COOH)]Y[Sar][Trp(βS-Me,7-OMe)][X1][Nle][4Pal][Pip(4-aza)]W[NMeE][Dap(CONH2)])) | 9.05 | 9.57 |  |  | 
